Measurements taken from patent US6399617B1, “Use” (Biovitrum AB, priority 2000, dated 2002).

Key:
[1] = test system: ob/ob mice; assay: Effect of compounds on food intake in ob/ob mice (15 h food consumption during subcutaneous minipump infusion); assay type: in vivo, mouse; conditions: subcutaneous continuous infusion
Procedure: Obese (ob/ob) mouse is selected as the primary animal model for screening as this mutant mouse consumes high amounts of food resulting in a high signal to noise ratio. To further substantiate and compare efficacy data, the effect of the compounds on food consumption is also studied in wild type (C57BL/6J) mice. The amount of food consumed during 15 hours of infusion of compounds is recorded.
Male mice (obese C57BL/6JBom-Lep^ob and lean wild-type C57B1/6JBom; Bomholtsgaard, Denmark) 8-9 weeks with an average body weight of 50 g (obese) and 25 g (lean) are used in all the studies. The animals are housed singly in cages at 23±1° C., 40-60% humidity and have free access to water and standard laboratory chow. The 12/12-h light/dark cycle is set to lights off at 5 p.m. The animals are conditioned for at least one week before start of study.
The test compounds are dissolved in solvents suitable for each specific compound such as cyclodextrin, cyclodextrin/methane sulfonic acid, polyethylene glycol/methane sulfonic acid, or saline. Fresh solutions are made for each study. […] The purity of the test compounds is of analytical grade.
The animals are weighed at the start of the study and randomized based on body weight. Alzet osmotic minipumps (Model 2001D; infusion rate 8 μl/h) are used and loaded essentially as recommended by the Alzet technical information manual (Alza Scientific Products, 1997; Teeuwes and Yam, 1976). Continuous subcutaneous infusion with 24 hours duration is used. The minipumps are either filled with different concentrations of test compounds dissolved in vehicle or with only vehicle solution and maintained in vehicle pre-warmed to 37° C. […]
The weights of the food pellets are measured at 5 p.m. and at 8 p.m. for two days before (baseline) and one day after the implantation of the osmotic minipumps. […]
Food consumption for 15 hours is measured for the three consecutive days and the percentage of basal level values is derived for each animal from the day before and after treatment. The values are expressed as mean±SD and mean±SEM from eight animals per dose group. […]

[2] = Determination of plasma concentration (free plasma concentration at steady state); assay type: in vivo, mouse; conditions: ob/ob mice, subcutaneous continuous infusion
Procedure: The weights of the food pellets are measured at 5 p.m. and at […]. for two days before (baseline) and one day after the implantation of the osmotic minipumps. The weighing is performed with a computer assisted Mettler Toledo PR 5002 balance. Occasional spillage is corrected for. At the end of the study the animals are killed by neck dislocation and trunk blood sampled for later analysis of plasma drug concentrations.
The plasma sample proteins are precipitated with methanol, centrifuged and the supernatant is transferred to HPLC vials and injected into the liquid chromatography/mass spectrometric system. The mass spectrometer is set for electrospray positive ion mode and Multiple Reaction Monitoring (MRM with the transition m/z 316⇄221).
A linear regression analysis of the standards forced through the origin is used to calculate the concentrations of the unknown samples.

COc1ccc(NS(=O)(=O)c2sc3ccc(Cl)cc3c2C)cc1N1CCNCC1.Cl [SB-271046, 5-Chloro-3-methyl-benzo-[b]thiophene-2-sulphonic acid (4-methoxy-3-piperazin-yl-phenyl)-amide monohydrochloride]
reduction of food intake compared to the basal level of food intake ([1]; 10 mg/kg/day): 45% | reduction of food intake compared to the basal level of food intake ([1]; 30 mg/kg/day): 60% | reduction of food intake compared to the basal level of food intake ([1]; 50 mg/kg/day): 77% | Free plasma concentration at the steady state giving the effect ([2]; 10 mg/kg/day): 0.006 | Free plasma concentration at the steady state giving the effect ([2]; 30 mg/kg/day): 0.019 | Free plasma concentration at the steady state giving the effect ([2]; 50 mg/kg/day): 0.034
